Values of other authors as cited in US11963940B2, “Parenteral esmolol formulation” (AOP ORPHAN PHARMACEUTICALS AG, priority 2012, dated 2024).

Details: after the starting dose, e.g. initial infusion

- time to steady state plasma concentration: ≤ 5 min
Compound: COC(=O)CCc1ccc(OCC(O)CNC(C)C)cc1.Cl (stereo not shown) [esmolol, 4-[2-Hydroxy-3-[(1-methylethyl)amino]propoxy] benzenepropanoic acid methyl ester hydrochloride]
